Assays:
endometriotic lesions = experiment: Endometriosis animal model, lesion size and histology; type: in vivo, C57/BL6 mice; settings: fraxetin 30mg/kg orally for four weeks
Protocol: Seven-week-old female C57/BL6 mice were purchased from DBL (Eumseong, South Korea). After a 7-day acclimation period, they were subcutaneously injected with 2 mg/50 μL of progesterone two days before surgery. After anesthetizing the mice, the […] was excised and autografted onto the peritoneum to induce endometriosis. After culturing for two weeks, the mice were randomly assigned to groups and administered either a vehicle as the control, fraxetin at 30mg/kg, or dienogest at 1 mg/kg orally for four weeks.
For histological analysis, tissues were lesion prepared as paraffin blocks and sectioned onto slides. Hematoxylin-eosin (H&E) staining was performed using Mayer's hemalum solution and a Prussian Blue staining kit (Cat. Ab150674, Abcam) histological analysis and for immunohistochemistry. Immunohistochemistry was conducted using an avidin-biotin complex kit (Cat. PK-4001, Vector Laboratories).

VK2/E6E7 cells [1] = experiment: Wound healing / cell migration assay; type: cell-based, human; settings: vehicle 90%
Protocol: (§1) To measure the effects of fraxetin on endometrial cell migration, the inventors used a migration culture dish insert from Ibidi to analyze cell mobility.
(§2) In brief, endometrial cells (VK2/E6E7, End1/E6E7) were placed in compartmentalized wells within the culture dish and cultured until they filled the compartments. Afterward, the insert separating the compartments was removed, creating a 500 μm gap for cell migration. The cells were then cultured with medium containing fraxetin at 37° C. in a 5% CO2 incubator. Cell movement across the gap was observed using an optical microscope (DM3000, Leica) and photographed, and the migration distance was calculated and quantified.

End1/E6E7 cells [2] = experiment: Wound healing / cell migration assay; type: cell-based, human; settings: End1/E6E7, 50 μM fraxetin; vehicle 88%
Protocol: as §1, §2

VK2/E6E7 cells [3] = experiment: Apoptosis by Annexin V and propidium iodide staining; type: cell-based, human
Protocol: (§3) To assess the apoptosis-inducing effect of fraxetin in endometrial cells, the inventors used a FITC Annexin V Apoptosis Detection Kit I (BD Sciences).
(§4) First, VK2/E6E7 and End1/E6E7 cells were cultured in 6-well plates, treated with fraxetin in a dose-dependent manner (0 μM, […], 10 μM, 20 µM, 50 μM, 100 μM), and incubated for 48 hours at 37° C. in a 5% CO2 incubator. The cells were then detached using trypsin, washed with PBS, and mixed slowly with 1 mL of 1X binding buffer. After centrifugation, the cell pellet was resuspended in 200 μL of 1X binding buffer. The suspension (100 μL) was transferred to a 1.5 mL brown tube, and 5 μL of Annexin V and PI (propidium iodide) were added, followed by staining at room temperature for 15 minutes. After adding 400 μL of 1X binding buffer, the stained solution was transferred to a 5 mL FACS tube, and the number of apoptotic cells was measured by analyzing fluorescence intensity using flow cytometry.

End1/E6E7 cells [4] = experiment: as above; type: cell-based, human
Protocol: as §3, §4

VK2/E6E7 cells [5] = experiment: ROS generation by DCFH-DA flow cytometry; type: cell-based, human
Protocol: (§5) To assess the inhibitory effect of fraxetin on ROS generation in endometrial cells, the inventors used flow cytometry to measure ROS levels. In brief, endometriosis cells were stained with DCFH-DA (final concentration 10 μM) for 30 minutes and treated with 50 μM fraxetin in experimental groups, with or without 2 mM N-acetylcysteine (NAC; Cat No. A0737, Sigma), in a 37° C. incubator. Afterward, the cells were washed with PBS, and ROS levels were detected by measuring fluorescence DCF via flow cytometry.

End1/E6E7 cells [6] = experiment: ROS generation by DCFH-DA flow cytometry; type: cell-based, human
Protocol: as §5

VK2/E6E7 cells [7] = experiment: BrdU cell proliferation assay; type: cell-based, human; settings: VK2/E6E7, 100 μM, 48 hours
Protocol: (§6) To examine the effects of fraxetin on cell proliferation, the inventors performed a BrdU cell proliferation assay.
(§7) First, 5×10^3 cells of VK2/E6E7, End1/E6E7, and T-HESC were each distributed in 100 μL of medium in 96-well plates.
(§8) Fraxetin was then administered in a dose-dependent manner (0μM, 5 μM, 10 μM, 20 uM, 50 μM, 100 uM) and cultured for 48 hours, followed by the BrdU assay using a BrdU kit (Cat No: 1167229001, Roche) according to the manufacturer's instructions.
(§9) After 48 hours of incubation, 10 μM BrdU (Bromodeoxyuridine) was added to each well and incubated at 37° C. in a 5% CO2 incubator for 2 hours. The cells were then fixed, reacted with anti-BrdU-POD solution at room temperature for 90 minutes, and washed three times. Finally, 100 μL of 3, 3′, 5, 5′-tetramethylbenzidine substrate was added, and absorbance was measured at wavelengths of 370 nm and 492 nm to analyze cell proliferation.

End1/E6E7 cells [8] = experiment: BrdU cell proliferation assay; type: cell-based, human; settings: End1/E6E7, all concentrations (5-100 μM), 48 hours
Protocol: as §6, §7, §8, §9

VK2/E6E7 cells [9] = experiment: Western blot analysis of protein expression and phosphorylation; type: cell-based, human
Protocol: (§10) To analyze protein expression related to the development of endometriosis following fraxetin treatment, the inventors conducted western blot analysis.
(§11) Briefly, endometrial cells were treated with fraxetin in a dose-dependent manner or in combination with signaling pathway inhibitors. Total proteins were extracted from the treated cells, and protein quantification was performed using the Bradford protein assay (Bio-Rad, Hercules, CA, USA). The extracted proteins were then denatured at 95° C. for 5 minutes and subjected to electrophoresis on a 10% SDS/PAGE gel before being transferred to a nitrocellulose membrane. The membrane was subsequently incubated with primary and secondary antibodies, and target protein expression was analyzed using chemiluminescence detection reagents (Supersignal West Pico, Pierce, Rockford, IL, USA) with the ChemiDoc EQ system and Quantity One software (Bio-Rad).

End1/E6E7 cells [10] = experiment: as above; type: cell-based, human
Protocol: as §10, §11

[11] = VK2/E6E7, Example 7 comparison fraxetin vs dienogest
[12] = End1/E6E7, Example 7 comparison fraxetin vs dienogest

SMILES: COc1cc2ccc(=O)oc2c(O)c1O [fraxetin]
- immune cell infiltration (tissue after iron staining) (endometriotic lesions): increase
- size of endometriotic lesions (endometriotic lesions; vs vehicle control): significantly reduced
- wound closure (VK2/E6E7 cells [1]): 18%
- wound closure (End1/E6E7 cells [2]): 7%
- early and late apoptosis cell populations (VK2/E6E7 cells [3]; VK2/E6E7, Example 6): tended to increase
- early and late apoptosis (VK2/E6E7 cells [3]; [11]): induced both early and late apoptosis
- early and late apoptosis cell populations (End1/E6E7 cells [4]; End1/E6E7, Example 6): tended to increase
- early and late apoptosis (End1/E6E7 cells [4]; [12]): induced both early and late apoptosis
- relative ROS generation (VK2/E6E7 cells [5]; [11]): > 200%
- ROS generation compared to control (VK2/E6E7 cells [5]; VK2/E6E7, fraxetin-treated): up to 1.5 fold
- relative ROS generation (End1/E6E7 cells [6]; [12]): over 150%
- ROS generation compared to control (End1/E6E7 cells [6]; End1/E6E7, fraxetin-treated): up to 1.5 fold
- reduction of cell proliferation (VK2/E6E7 cells [7]): approximately 40%
- cell proliferation (remaining) (End1/E6E7 cells [8]): below 50%
- ERK1/2 phosphorylation (VK2/E6E7 cells [9]; 50 μM fraxetin, VK2/E6E7): 0.61 fold
- p38 phosphorylation compared to control (VK2/E6E7 cells [9]; 50 μM fraxetin, second value, VK2/E6E7 assumed): 0.47 fold
- IRE1α expression (VK2/E6E7 cells [9]; VK2/E6E7): 0.53 fold
- expression of anti-apoptotic protein Bcl-xL (VK2/E6E7 cells [9]; VK2/E6E7): reduced
- pro-apoptotic protein BAK (VK2/E6E7 cells [9]; VK2/E6E7): increased
- pro-apoptotic protein BAX (VK2/E6E7 cells [9]; VK2/E6E7): increased
- reduction of S6 phosphorylation (End1/E6E7 cells [10]; 20 μM fraxetin, End1/E6E7): 59%
- ERK1/2 phosphorylation (End1/E6E7 cells [10]; 50 μM fraxetin, End1/E6E7): 0.51 fold
- p38 phosphorylation compared to control (End1/E6E7 cells [10]; 50 μM fraxetin, first value, End1/E6E7 assumed): 0.61 fold
- IRE1α expression (End1/E6E7 cells [10]; End1/E6E7): 1.7 fold
- expression of anti-apoptotic protein Bcl-xL (End1/E6E7 cells [10]; End1/E6E7): reduced
- inhibition of AKT phosphorylation compared to control (End1/E6E7 cells [10]; End1/E6E7): 57%
- pro-apoptotic protein BAK (End1/E6E7 cells [10]; End1/E6E7): increased
- pro-apoptotic protein BAX (End1/E6E7 cells [10]; End1/E6E7): increased

— patent US20250302799A1, “PHARMACEUTICAL COMPOSITION CONTAINING FRAXETIN FOR PREVENTION OR TREATMENT OF ENDOMETRIOSIS” (Research & Business Foundation Sungkyunkwan University, priority 2024, published 2025)
